# Values quoted from earlier work, collected in US20080160064A1, “DEVICES AND METHODS FOR […]” (priority 2006, published 2008).
# Target: hemoglobin (Homo sapiens, UniProt P68871+P69905)
# Details: higher affinity than oxygen
# Sequence of hemoglobin (P69905 2-142 limits assumed): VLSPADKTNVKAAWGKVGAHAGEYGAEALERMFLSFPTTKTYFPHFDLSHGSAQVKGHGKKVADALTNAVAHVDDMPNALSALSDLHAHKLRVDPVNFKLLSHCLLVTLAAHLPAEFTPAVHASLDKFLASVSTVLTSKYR
# Sequence of hemoglobin (P68871 2-147 limits assumed): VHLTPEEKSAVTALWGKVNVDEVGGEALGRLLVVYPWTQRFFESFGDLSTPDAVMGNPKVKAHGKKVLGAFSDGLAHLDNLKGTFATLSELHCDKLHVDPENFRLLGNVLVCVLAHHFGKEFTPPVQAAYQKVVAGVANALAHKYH
structure (smiles),measurement,value
"[C-]#[O+] [CO, Carbon monoxide]",affinity for hemoglobin relative to oxygen,~200 ×
